Laboratory results taken from ChEMBL document CHEMBL5291721, “A preclinical secondary pharmacology resource illuminates target-adverse drug reaction associations of marketed drugs” (Nat Commun, 2023).

Experiments:
[1] = molecular target: T1, Alpha-1A adrenergic receptor (Homo sapiens, UniProt P35348); type: functional, cell-based
T1 sequence (P35348 whole entry): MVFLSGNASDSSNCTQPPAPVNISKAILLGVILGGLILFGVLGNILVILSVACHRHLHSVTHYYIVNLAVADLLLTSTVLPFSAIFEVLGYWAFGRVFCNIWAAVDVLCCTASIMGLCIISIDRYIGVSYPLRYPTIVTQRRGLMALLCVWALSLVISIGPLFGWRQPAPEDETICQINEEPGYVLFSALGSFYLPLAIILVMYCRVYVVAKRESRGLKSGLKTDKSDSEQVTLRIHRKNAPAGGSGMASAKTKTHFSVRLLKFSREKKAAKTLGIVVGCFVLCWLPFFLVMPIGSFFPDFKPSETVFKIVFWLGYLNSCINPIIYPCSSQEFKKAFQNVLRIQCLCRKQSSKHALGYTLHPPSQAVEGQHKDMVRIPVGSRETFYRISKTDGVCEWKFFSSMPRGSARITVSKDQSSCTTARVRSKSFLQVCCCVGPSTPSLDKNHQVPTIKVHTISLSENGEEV

[2] = molecular target: cGMP-inhibited 3',5'-cyclic phosphodiesterase 3A (Homo sapiens, UniProt Q14432); type: functional
Chain of cGMP-inhibited 3',5'-cyclic phosphodiesterase 3A (Q14432 whole entry): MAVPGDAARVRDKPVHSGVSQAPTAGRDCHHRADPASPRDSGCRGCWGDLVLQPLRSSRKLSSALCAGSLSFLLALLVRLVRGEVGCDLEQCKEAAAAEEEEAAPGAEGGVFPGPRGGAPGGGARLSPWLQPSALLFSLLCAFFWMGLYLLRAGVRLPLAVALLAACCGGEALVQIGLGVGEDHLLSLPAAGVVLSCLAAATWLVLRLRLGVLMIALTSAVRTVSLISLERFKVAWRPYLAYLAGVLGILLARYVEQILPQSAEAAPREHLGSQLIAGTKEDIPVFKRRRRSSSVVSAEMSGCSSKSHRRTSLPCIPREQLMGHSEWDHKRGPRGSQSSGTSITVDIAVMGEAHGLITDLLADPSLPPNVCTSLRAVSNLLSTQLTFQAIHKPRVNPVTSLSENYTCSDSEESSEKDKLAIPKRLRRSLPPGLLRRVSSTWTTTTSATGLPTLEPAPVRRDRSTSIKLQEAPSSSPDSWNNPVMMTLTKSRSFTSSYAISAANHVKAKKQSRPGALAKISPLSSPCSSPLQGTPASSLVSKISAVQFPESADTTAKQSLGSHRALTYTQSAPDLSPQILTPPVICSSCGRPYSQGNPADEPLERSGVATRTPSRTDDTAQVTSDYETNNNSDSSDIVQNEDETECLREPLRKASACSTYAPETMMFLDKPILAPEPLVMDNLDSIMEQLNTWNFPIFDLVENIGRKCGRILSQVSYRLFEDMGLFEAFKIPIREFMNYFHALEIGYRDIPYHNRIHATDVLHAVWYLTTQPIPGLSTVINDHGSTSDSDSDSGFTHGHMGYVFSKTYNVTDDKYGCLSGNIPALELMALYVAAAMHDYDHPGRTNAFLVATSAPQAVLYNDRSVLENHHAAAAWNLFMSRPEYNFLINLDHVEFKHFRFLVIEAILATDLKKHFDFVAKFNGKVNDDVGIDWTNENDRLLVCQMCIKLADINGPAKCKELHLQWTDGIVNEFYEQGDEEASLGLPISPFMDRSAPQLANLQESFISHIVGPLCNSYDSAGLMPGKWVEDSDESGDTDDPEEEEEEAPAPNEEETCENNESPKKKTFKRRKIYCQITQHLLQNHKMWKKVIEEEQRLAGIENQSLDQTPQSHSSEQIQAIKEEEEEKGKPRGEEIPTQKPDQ

[3] = molecular target: 3',5'-cyclic-AMP phosphodiesterase 4A (Homo sapiens, UniProt P27815); type: functional
Chain of 3',5'-cyclic-AMP phosphodiesterase 4A (P27815 whole entry): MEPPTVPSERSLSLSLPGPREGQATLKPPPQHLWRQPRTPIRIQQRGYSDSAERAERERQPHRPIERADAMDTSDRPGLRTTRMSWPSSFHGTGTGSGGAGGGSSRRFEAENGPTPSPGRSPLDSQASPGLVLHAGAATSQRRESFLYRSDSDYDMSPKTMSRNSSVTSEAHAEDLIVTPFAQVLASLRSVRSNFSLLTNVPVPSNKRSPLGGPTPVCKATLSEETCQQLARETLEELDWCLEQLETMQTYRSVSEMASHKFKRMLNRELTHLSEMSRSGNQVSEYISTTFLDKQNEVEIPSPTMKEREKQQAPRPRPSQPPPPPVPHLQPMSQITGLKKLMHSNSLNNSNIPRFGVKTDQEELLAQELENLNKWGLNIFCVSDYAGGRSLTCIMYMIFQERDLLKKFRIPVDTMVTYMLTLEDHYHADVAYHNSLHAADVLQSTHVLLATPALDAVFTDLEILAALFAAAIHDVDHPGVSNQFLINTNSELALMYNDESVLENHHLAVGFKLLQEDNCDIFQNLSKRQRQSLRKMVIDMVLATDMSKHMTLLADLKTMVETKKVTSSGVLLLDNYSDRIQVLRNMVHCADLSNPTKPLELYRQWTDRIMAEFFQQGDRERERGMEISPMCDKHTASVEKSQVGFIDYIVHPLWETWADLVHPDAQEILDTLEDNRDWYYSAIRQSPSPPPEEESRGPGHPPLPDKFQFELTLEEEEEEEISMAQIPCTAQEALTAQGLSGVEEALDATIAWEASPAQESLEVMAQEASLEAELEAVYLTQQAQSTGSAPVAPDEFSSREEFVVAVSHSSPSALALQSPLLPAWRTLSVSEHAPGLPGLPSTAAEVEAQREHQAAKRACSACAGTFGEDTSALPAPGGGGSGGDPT

Progesterone receptor = molecular target: T2, Progesterone receptor (Homo sapiens, UniProt P06401)
T2 sequence (P06401 whole entry): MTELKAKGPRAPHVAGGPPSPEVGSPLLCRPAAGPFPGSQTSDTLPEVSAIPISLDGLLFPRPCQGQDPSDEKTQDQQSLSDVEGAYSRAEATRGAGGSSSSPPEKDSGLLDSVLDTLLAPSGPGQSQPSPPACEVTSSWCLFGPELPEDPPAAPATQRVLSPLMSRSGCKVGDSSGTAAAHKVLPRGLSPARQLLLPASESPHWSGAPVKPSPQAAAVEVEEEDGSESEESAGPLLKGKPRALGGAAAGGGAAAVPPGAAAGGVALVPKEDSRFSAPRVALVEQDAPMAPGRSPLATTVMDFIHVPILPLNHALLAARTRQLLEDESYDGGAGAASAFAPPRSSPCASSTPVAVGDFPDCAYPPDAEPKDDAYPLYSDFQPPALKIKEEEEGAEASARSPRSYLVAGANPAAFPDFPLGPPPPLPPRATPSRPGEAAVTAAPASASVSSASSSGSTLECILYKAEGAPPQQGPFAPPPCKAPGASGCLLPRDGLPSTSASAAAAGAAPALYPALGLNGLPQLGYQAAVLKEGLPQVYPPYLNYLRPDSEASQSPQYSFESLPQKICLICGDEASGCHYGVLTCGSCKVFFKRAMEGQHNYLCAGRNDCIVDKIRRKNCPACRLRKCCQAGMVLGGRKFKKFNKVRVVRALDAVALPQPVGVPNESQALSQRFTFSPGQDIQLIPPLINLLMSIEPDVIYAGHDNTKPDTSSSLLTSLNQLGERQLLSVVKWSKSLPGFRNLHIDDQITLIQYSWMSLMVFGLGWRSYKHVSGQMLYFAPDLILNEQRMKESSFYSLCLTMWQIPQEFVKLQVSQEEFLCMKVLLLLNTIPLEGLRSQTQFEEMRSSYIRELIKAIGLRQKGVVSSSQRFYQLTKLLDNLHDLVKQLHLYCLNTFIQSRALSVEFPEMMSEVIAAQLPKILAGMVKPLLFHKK

[4] = molecular target: Sodium-dependent noradrenaline transporter (Homo sapiens, UniProt P23975)
Chain of Sodium-dependent noradrenaline transporter (P23975 whole entry): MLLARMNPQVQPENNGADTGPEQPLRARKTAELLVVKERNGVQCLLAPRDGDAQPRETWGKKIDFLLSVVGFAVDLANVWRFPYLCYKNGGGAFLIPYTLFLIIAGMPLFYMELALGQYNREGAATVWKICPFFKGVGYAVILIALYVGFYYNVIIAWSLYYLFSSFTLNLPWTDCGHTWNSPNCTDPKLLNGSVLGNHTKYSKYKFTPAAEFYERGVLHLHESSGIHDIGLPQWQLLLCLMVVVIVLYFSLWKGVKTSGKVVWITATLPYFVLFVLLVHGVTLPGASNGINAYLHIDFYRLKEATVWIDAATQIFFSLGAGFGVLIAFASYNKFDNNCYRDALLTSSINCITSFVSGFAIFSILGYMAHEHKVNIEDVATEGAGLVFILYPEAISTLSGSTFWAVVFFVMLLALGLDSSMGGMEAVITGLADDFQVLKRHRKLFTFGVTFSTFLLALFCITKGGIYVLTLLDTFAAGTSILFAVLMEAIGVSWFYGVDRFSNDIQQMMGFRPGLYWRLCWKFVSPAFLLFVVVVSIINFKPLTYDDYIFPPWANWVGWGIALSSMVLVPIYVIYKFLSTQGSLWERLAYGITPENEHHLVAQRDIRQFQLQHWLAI

[5] = molecular target: T3, Gastrin/cholecystokinin type B receptor (Homo sapiens, UniProt P32239)
T3 sequence (P32239 whole entry): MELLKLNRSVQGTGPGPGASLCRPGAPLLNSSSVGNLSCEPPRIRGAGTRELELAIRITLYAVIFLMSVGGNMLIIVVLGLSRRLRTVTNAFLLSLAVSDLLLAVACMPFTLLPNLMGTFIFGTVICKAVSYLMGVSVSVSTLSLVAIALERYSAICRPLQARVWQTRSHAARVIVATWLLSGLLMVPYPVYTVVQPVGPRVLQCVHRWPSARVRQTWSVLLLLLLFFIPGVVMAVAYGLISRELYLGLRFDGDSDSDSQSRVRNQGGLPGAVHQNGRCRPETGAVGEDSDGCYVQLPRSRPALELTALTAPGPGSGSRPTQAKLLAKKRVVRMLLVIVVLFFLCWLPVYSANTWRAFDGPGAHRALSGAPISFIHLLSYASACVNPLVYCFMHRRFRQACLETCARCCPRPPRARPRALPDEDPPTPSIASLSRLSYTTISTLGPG

Estrogen receptor = molecular target: T4, Estrogen receptor (Homo sapiens, UniProt P03372)
T4 sequence (P03372 whole entry): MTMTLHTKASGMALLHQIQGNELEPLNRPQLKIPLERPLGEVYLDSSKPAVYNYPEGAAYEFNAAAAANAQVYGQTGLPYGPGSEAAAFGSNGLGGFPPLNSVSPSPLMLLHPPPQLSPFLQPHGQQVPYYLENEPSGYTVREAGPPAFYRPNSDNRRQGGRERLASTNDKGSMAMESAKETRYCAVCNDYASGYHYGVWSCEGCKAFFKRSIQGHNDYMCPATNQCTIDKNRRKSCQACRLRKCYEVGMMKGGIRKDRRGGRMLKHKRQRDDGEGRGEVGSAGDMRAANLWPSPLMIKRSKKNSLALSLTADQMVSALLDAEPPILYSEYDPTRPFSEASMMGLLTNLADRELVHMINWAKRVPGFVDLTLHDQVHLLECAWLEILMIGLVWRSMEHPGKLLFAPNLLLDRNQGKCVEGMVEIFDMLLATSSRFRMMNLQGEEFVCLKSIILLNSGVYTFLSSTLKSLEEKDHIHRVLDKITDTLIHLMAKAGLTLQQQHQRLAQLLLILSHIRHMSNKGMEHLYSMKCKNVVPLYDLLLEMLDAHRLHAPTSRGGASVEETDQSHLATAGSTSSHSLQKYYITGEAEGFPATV

Mu-type opioid receptor = Mu-type opioid receptor (Homo sapiens, UniProt P35372); experiment: biochemical; type: functional
Chain of Mu-type opioid receptor (P35372 whole entry): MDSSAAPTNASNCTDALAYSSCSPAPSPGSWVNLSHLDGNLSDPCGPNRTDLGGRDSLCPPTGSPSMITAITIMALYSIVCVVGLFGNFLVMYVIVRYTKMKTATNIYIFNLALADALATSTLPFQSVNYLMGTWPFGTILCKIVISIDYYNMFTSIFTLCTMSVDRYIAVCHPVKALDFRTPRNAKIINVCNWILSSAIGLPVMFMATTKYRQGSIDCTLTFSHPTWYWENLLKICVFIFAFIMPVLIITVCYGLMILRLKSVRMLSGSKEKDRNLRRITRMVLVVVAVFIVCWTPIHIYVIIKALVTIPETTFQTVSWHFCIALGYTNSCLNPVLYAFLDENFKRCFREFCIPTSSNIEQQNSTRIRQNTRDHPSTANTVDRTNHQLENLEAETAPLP
Note: assay procedure not described here.

SMILES	AC50 [1] [µM]	AC50 [2] [µM]	AC50 [3] [µM]	AC50 (Progesterone receptor) [µM]	AC50 [4] [µM]	AC50 [5] [µM]	AC50 (Estrogen receptor) [µM]	AC50 (Mu-type opioid receptor) [µM]
O=C1c2c(O)c(=O)ccn2N([C@@H]2c3ccccc3SCc3c2ccc(F)c3F)[C@@H]2COCCN12 [BALOXAVIR]	> 30	> 30	> 30	> 30	> 30	–	–	–
C(=N\NC1=NCCN1)/c1c2ccccc2c(/C=N/NC2=NCCN2)c2ccccc12 [BISANTRENE]	1.47	> 30	> 30	> 30	7.13	–	–	–
N[C@@H](C(=O)N[C@@H]1C(=O)N2C(C(=O)O)=C(Cl)CS[C@H]12)c1ccccc1 [CEFACLOR ANHYDROUS]	–	–	–	–	–	> 30	> 30	> 30
CCO/N=C(\C(=O)N[C@@H]1C(=O)N2C(C(=O)[O-])=C(Sc3nc(-c4cc[n+](C)cc4)cs3)CS[C@H]12)c1nsc(N)n1 [CEFTAROLINE]	> 30	> 30	> 30	> 30	> 30	–	–	–
Cc1cc(O)cc(C)c1Cl [CHLOROXYLENOL]	–	> 30	> 30	> 30	> 30	–	–	–
C[N+](C)(C)CCCCCCCCCC[N+](C)(C)C [DECAMETHONIUM]	> 30	> 30	> 30	–	> 30	–	–	–
O=C1c2ccccc2C(=O)C1C(=O)C(c1ccccc1)c1ccccc1 [DIPHENADIONE]	> 3	> 30	> 30	> 30	> 30	–	–	–
CCC(=O)O[C@H]1[C@H](O[C@@H]2[C@@H](C)[C@H](O[C@H]3C[C@@](C)(OC)[C@@H](O)[C@H](C)O3)[C@@H](C)C(=O)O[C@H](CC)[C@@](C)(O)[C@H](O)[C@@H](C)C(=O)[C@H](C)C[C@@]2(C)O)O[C@H](C)C[C@@H]1N(C)C [ERYTHROMYCIN PROPIONATE]	–	> 30	> 30	10.4	29.9	–	–	–
CCOC(=O)c1ccc(O)cc1 [ETHYLPARABEN]	> 30	> 30	> 30	> 30	> 30	–	–	–
O=C1[C@H](CC[C@H](O)c2ccc(F)cc2)[C@@H](c2ccc(O)cc2)N1c1ccc(F)cc1 [EZETIMIBE]	–	> 30	> 30	24.6	24	–	–	–
O=C(COc1ccc(Cl)cc1)N1CCN(Cc2ccc3c(c2)OCO3)CC1 [FIPEXIDE]	13.3	> 30	> 30	> 30	20.4	–	–	–
Cc1c(-c2ccccc2)oc2c(C(=O)OCCN3CCCCC3)cccc2c1=O [FLAVOXATE]	6.29	> 30	6.12	> 30	11.3	–	–	–
CCC(=O)c1c(O)cc(O)cc1O [FLOPROPIONE]	> 30	> 30	> 30	> 30	> 30	–	–	–
CC1(C)O[C@@H]2C[C@H]3[C@@H]4C[C@H](F)C5=CC(=O)CC[C@]5(C)[C@H]4[C@@H](O)C[C@]3(C)[C@]2(C(=O)CO)O1 [FLURANDRENOLIDE]	> 30	> 30	> 30	0.0666	> 30	–	–	–
C#C[C@]1(O)CC[C@H]2[C@@H]3CCC4=CC(=O)CC[C@@H]4[C@H]3CC[C@@]21CC [LEVONORGESTREL]	> 30	> 30	> 30	–	> 30	–	–	–
OC[C@@H](O)[C@@H](O)[C@H](O)[C@H](O)CO [MANNITOL]	> 30	> 30	> 30	> 30	> 30	–	–	–
CN1CCCC(CN2c3ccccc3Sc3ccccc32)C1 (stereo not given) [MEPAZINE]	0.391	> 30	> 30	> 30	2.38	–	–	–
Sc1ncnc2nc[nH]c12 [MERCAPTOPURINE ANHYDROUS]	> 30	> 30	> 30	> 30	> 30	–	–	–
C[N+]1(C)[C@@H]2C[C@@H](OC(=O)[C@H](CO)c3ccccc3)C[C@H]1[C@@H]1O[C@@H]12 [METHSCOPOLAMINE]	> 30	> 30	> 30	> 30	> 30	–	–	–
CC(=O)Oc1c(C)cc(OCC(O)CNC(C)C)c(C)c1C (stereo not given) [METIPRANOLOL]	> 30	> 30	> 30	> 30	> 30	–	–	–
Cc1cccc(C)c1OCC(C)N (stereo not given) [MEXILETINE]	–	–	–	–	–	> 30	> 30	> 30
NC(=O)c1ncn([C@@H]2O[C@H](CO)[C@@H](O)[C@H]2O)c1O [MIZORIBINE]	–	–	–	–	–	> 30	> 30	> 30
O=C1CC[C@@]2(O)[C@H]3Cc4ccc(O)c5c4[C@@]2(CCN3CC2CC2)[C@H]1O5 [NALTREXONE]	> 30	> 30	> 30	> 30	> 30	–	–	–
CCc1nn(CCCN2CCN(c3cccc(Cl)c3)CC2)c(=O)n1CCOc1ccccc1 [NEFAZODONE]	–	–	–	–	–	> 30	> 30	7.6
COC(=O)C1=C(C)NC(C)=C(C(=O)OCC(C)C)C1c1ccccc1[N+](=O)[O-] (stereo not given) [NISOLDIPINE]	–	–	–	–	–	–	> 30	> 30
NC1=NC(=O)C(c2ccccc2)O1 (stereo not given) [PEMOLINE]	–	–	–	–	–	> 30	–	> 30
Cc1cc2c(cc1CC(=O)c1sccc1S(=O)(=O)Nc1onc(C)c1Cl)OCO2 [SITAXENTAN]	–	> 30	25	> 30	> 30	–	–	–
CNC(=O)c1cc(Oc2ccc(NC(=O)Nc3ccc(Cl)c(C(F)(F)F)c3)cc2)ccn1 [SORAFENIB]	–	–	–	–	–	> 10	–	> 30
CCCS(=O)(=O)Nc1ccc(F)c(C(=O)c2c[nH]c3ncc(-c4ccc(Cl)cc4)cc23)c1F [VEMURAFENIB]	–	–	–	–	–	> 30	> 30	> 30
